US6376666B1 (Nauchno-Issledovatelsky Institut Farmakologii Rossiiskoi …, priority 1994, dated 2002)
Where a name gives a salt, the structure may show the parent alone.

What was measured:
[1] = system: ischemized myocardium of cats; assay: ST-segment elevation during 5 min occlusions of coronary artery (acute coronary deficiency); format: in vivo; conditions: cats, bolus injection
Procedure: These experiments were conducted in cats weighing 2,5-4,0 kg under anasthesia by i.v. injection of nembutal (40 mg/kg) in open chest conditions. Epicardium electrogram in 3-4 leads was registered in “Mingograph-81”. The value of mean elevation of ST-segment during 5 min occlusions of anterior left descending coronary artery with 15 min reperfusions between them was the main index of intensity of reversible ischemized damage of myocardium.
The statistical calculation was carried out with non-parametric Wilcocson method for associated variants.

[2] = system: cats; assay: hemodynamics and activity of intact heart in cats under anesthesia; format: in vivo
Procedure: The effects of compounds on the hemodynamics and activity of intact heart were studied in cats under anesthesia. The experiments were carried out under conditions of open chest. The phase curve of aortic blood flow was the main index of cardiac activity. The compounds were administered i.v. in physiological solution. The t-Student' test was used to estimate the statistical significance.

[3] = system: ischemized myocardium of cats; assay: contractile and pump functions and ATP level of ischemized myocardium (20-40 min occlusion, reperfusion); format: in vivo
Procedure: The effects of this compound on contractile and pump functions of ischemized myocardium were studied in cats weighing 3,0-4,5 kg under anesthesia with nembutal (40 mg/kg). […] The phase curve of blood flow in ascending part of the aortic arch was recorded with electromagnetic blood flowmeter MFV-1200 (“Nihon-Kohden”, Japan). Hemodynamics, heart activity values and the number of arrhythmia were calculated. In the experiments with 40 min ischemia immediately after 60 min the intact and ischemized zones of left ventricle were dissected and freezed in liquid nitrogen. ATP level was measured using hexokinase method in these zones. 4 series of experiments (2-control and 2-basic) were conducted in 12 cats in each. For statistical calculation the t-Student and Fisher's precision test were used.

[4] = system: ventricular disturbances of heart rhythm; assay: arrhythmia in concious dogs according to Harris; format: in vivo; conditions: for % ectopic contractions, change vs basal level / Heart rate, change vs basal level: concious dogs, 2 mg/kg i.v.
Procedure: The arrhythmia in concious dogs according to Harris. The experiments were conducted in mongrel dogs of either sex weighing 9-14 kg. Under anesthesia (40 mg/kg of nembutal i.v.) and artificial respiration the two-step occlusion of the left anterior descending coronary artery was performed. The constant ECG disturbances of the heart rhythm were recorded after 24 hours. […] T-Student' test was used for statistical calculation.

[5] = 1.0 mg/kg i.v., 0.25 min after injection
[6] = cats, 1.0 mg/kg i.v., after 2 min
[7] = cats, 1.0 mg/kg i.v., after 5 min
[8] = cats, 1.0 mg/kg i.v., after 10 min
[9] = cats, 1.0 mg/kg i.v., after 20 min
[10] = cats, 1.0 mg/kg i.v., after 30 min

In the case of CCCSc1nc2cc(C)c(C)cc2[nH]1 [II, 2-Propylthio-5,6-dimethylbenzimidazole], the melting point is reported as 122 to 123 °C.

For Cc1cc2nc(SCCN3CCCC3)[nH]c2cc1C (as salt: hydrochloride) (hydrate or solvate) [XIII, 2-[2-(Pyrrolidino)ethylthio]-5,6-dimethylbenzimidazole], the melting point was 115 to 116 °C (dec.).

In the case of C=CCSc1nc2ccc(OCC)cc2[nH]1 (as salt: hydrochloride) [IV, 2-Allylthio-5-ethoxybenzimidazole], the melting point is reported as 252 to 254 °C (dec.).

With CCN(CC)CCSc1nc2cc(C)c(C)cc2[nH]1.Cl.Cl [XXIII, dihydroxychloride 2-[2-(diethylamino)ethylthio]-5,6-dimethylbenzimidazole, reference compound] the “duration of effect on ST-segment elevation after bolus injection, in words” value [1] was “very short”, the “Cardiac volume, change from basal level” value [2, 5] was “+3.6 ± 3.5%” and the “Heart rate, change from basal level” value [2, 5] was −14.6 ± 1.2 %. The “Mean blood flow accelaration, change from basal level” value [2, 5] was “+2.1 ± 4.9%”, the “Mean blood pressure, change from basal level” value (from here on “Mean blood pressure, change”) [2, 5] was −13.9 ± 2.9 % and the “effect on contractile function of heart, in words” value ([2]; cats i.v., same doses as bradycardia) was “inhibition of contractile function of heart”. For the same compound, the “effect on heart rate, in words” value ([2]; cats i.v., VIII 1,0, IX 0,5 and 1,0, XX 1,0 and 2,0 mg/kg, XXIII 1.0, verapamil 0.5 mg/kg) was “expressed and long bradycardia”, the “Cardiac volume, change from basal level” value [2, 6] was −3.6 ± 2.0% and the “Heart rate, change from basal level” value [2, 6] was −11.7 ± 1.3 %. For the same compound, the “Mean blood flow accelaration (aortic), change from basal level” value [2, 6] was −4.9 ± 4.7%, the “Mean blood pressure, change” value [2, 6] was −0.2 ± 4.0% and the “Cardiac volume, change from basal level” value [2, 7] was −0.6 ± 2.3%. The “Heart rate, change from basal level” value [2, 7] was −7.9 ± 1.6 %, the “Mean blood flow accelaration (aortic), change from basal level” value [2, 7] was −1.0 ± 5.0% and the “Mean blood pressure, change” value [2, 7] was “+3.4 ± 2.5%”. The “Cardiac volume, change from basal level” value [2, 8] was −0.7 ± 3.6%, the “Heart rate, change from basal level” value [2, 8] was −5.1 ± 1.2 % and the “Mean blood flow accelaration (aortic), change from basal level” value [2, 8] was “+8.1 ± 3.0 %”. For the same compound, the “Mean blood pressure, change” value [2, 8] was “+3.8 ± 3.2%”, the “Cardiac volume, change from basal level” value [2, 9] was −4.2 ± 2.4% and the “Heart rate, change from basal level” value [2, 9] was −3.8 ± 1.5 %. For the same compound, the “Mean blood flow accelaration (aortic), change from basal level” value [2, 9] was “+4.3 ± 2.7%”, the “Mean blood pressure, change” value [2, 9] was “+2.8 ± 2.8%” and the “Cardiac volume, change from basal level” value [2, 10] was −4.5 ± 3.5%. The “Heart rate, change from basal level” value [2, 10] was −4.1 ± 1.0 %, the “Mean blood flow accelaration (aortic), change from basal level” value [2, 10] was −2.4 ± 3.4% and the “Mean blood pressure, change” value [2, 10] was “+2.9 ± 3.2%”. For the same compound, the “effect on inhibition of contractile function of myocardium induced by ischemic damage, in words” value ([3]; 20 min occlusion, 30 min reperfusion, 1,0 mg/kg bolus +50 mcg/kg/min i.v. during 30 min) was “observable only during occlusion period and first 10 min of reperfusion”, the “effect on ATP level in ischemized myocardium, in words” value ([3]; 40 min occlusion, 60 min reperfusion, hexokinase method) was “did not change the ATP level” and the “% ectopic contractions, change vs basal level” value (“% ectopic contractions, change” below) ([4]; after 1 min) was −57.4 ± 17.6 %. For the same compound, the “Heart rate, change vs basal level” value ([4]; after 1 min) was −19.0 ± 2.5 beats/min, the “% ectopic contractions, change” value ([4]; after 3 min) was −66.2 ± 18.1 % and the “% ectopic contractions, change” value ([4]; after 5 min) was −54.6 ± 16.8 %. For the same compound, the “Heart rate, change vs basal level” value ([4]; after 5 min) was −30.4 ± 4.5 beats/min, the “% ectopic contractions, change” value ([4]; after 10 min) was −22.6 ± 8.9 % and the “% ectopic contractions, change” value ([4]; after 15 min) was −24.8 ± 11.1 %. The “Heart rate, change vs basal level” value ([4]; after 15 min) was −29.0 ± 5.5 beats/min, the “% ectopic contractions, change” value ([4]; after 30 min) was −8.8 ± 4.7% and the “Heart rate, change vs basal level” value ([4]; after 30 min) was −14.0 ± 4.8 beats/min. The “% ectopic contractions, change” value ([4]; after 60 min) was −5.2 ± 2.6%, the “Heart rate, change vs basal level” value ([4]; after 60 min) was −12.0 ± 5.5 beats/min and the “duration of antiarrhythmic effect” value ([4]; concious dogs, 2,0 mg/kg i.v.) was “shorter”.

C=CCSc1nc2cc(C)c(C)cc2[nH]1 (as salt: hydrochloride) [III, 2-Allylthio-5,6-dimethylbenzimidazole] gave a melting point of 119 to 120 °C.

In the case of CCOc1ccc2nc(SCCN3CCCC3)[nH]c2c1 (as salt: hydrochloride) [Compound X, 2-[2-(Pyrrolidino)ethylthio]-5-ethoxybenzimidazole], the melting point is reported as 127 to 130 °C (dec.).

In the case of CCN(CC)CCSc1nc2ccccc2n1CCc1ccccc1 (as salt: hydrochloride) [XXI, 1-(β-Phenylethyl)-2-[2-(diethylamino)ethylthio]benzimidazole], the melting point is reported as 129 to 130 °C.
